Data from patent US12357652B2, “Formulations of phosphoramidate derivatives of nucleoside drugs” (priority 2015, dated 2025).

Test: Stability of NUC-3373 aqueous infusion solution in 250 ml 0.9% saline bags
Assay type: physicochemical
Procedure: The stability of the aqueous infusion solution was also evaluated using three different doses of NUC-3373 (1,000 mg, 2,000 mg and 3,000 mg) diluted in 250 ml 0.9% saline bags at two storage conditions (5° C. and 20° C.).

[1] = 1,000 mg NUC-3373 in 250 ml 0.9% saline infusion bag, 0 hours, 5° C.
[2] = 1,000 mg NUC-3373 in 250 ml 0.9% saline infusion bag, 0 hours, 20° C.
[3] = 1,000 mg NUC-3373 in 250 ml 0.9% saline infusion bag, 8 hours, 5° C.
[4] = 1,000 mg NUC-3373 in 250 ml 0.9% saline infusion bag, 8 hours, 20° C.
[5] = 1,000 mg NUC-3373 in 250 ml 0.9% saline infusion bag, 24 hours, 5° C.
[6] = 1,000 mg NUC-3373 in 250 ml 0.9% saline infusion bag, 24 hours, 20° C.
[7] = 1,000 mg NUC-3373 in 250 ml 0.9% saline infusion bag, 48 hours, 5° C.
[8] = 1,000 mg NUC-3373 in 250 ml 0.9% saline infusion bag, 48 hours, 20° C.
[9] = 2,000 mg NUC-3373 in 250 ml 0.9% saline infusion bag, 0 hours, 5° C.
[10] = 2,000 mg NUC-3373 in 250 ml 0.9% saline infusion bag, 0 hours, 20° C.
[11] = 2,000 mg NUC-3373 in 250 ml 0.9% saline infusion bag, 8 hours, 5° C.
[12] = 2,000 mg NUC-3373 in 250 ml 0.9% saline infusion bag, 8 hours, 20° C.
[13] = 2,000 mg NUC-3373 in 250 ml 0.9% saline infusion bag, 24 hours, 5° C.

C[C@H](NP(=O)(OC[C@H]1O[C@@H](n2cc(F)c(=O)[nH]c2=O)CC1O)Oc1cccc2ccccc12)C(=O)OCc1ccccc1 (stereo partly drawn) [NUC-3373, 5-fluoro-2′-deoxyuridine-5′-O-[1-naphthyl (benzoxy-L-alaninyl)] phosphate]
Assay content NUC-3373 [1]: 3.7 mg/mL | Osmolarity [1]: 457 mosm/L H20 | Purity [1]: 96.2 % area | Total NUC-3373 [1]: 960.9 mg | pH [1]: 5.5 | Assay content NUC-3373 [2]: 3.9 mg/mL | Osmolarity [2]: 462 mosm/L H20 | Purity [2]: 96.1 % area | Total NUC-3373 [2]: 1012.8 mg | pH [2]: 5.6 | Assay content NUC-3373 [3]: 3.6 mg/mL | Osmolarity [3]: 450 mosm/L H20 | Purity [3]: 96.1 % area | Total NUC-3373 [3]: 934.9 mg | pH [3]: 5.6 | Assay content NUC-3373 [4]: 3.7 mg/mL | Osmolarity [4]: 459 mosm/L H20 | Purity [4]: 96.1 % area | Total NUC-3373 [4]: 960.9 mg | pH [4]: 5.5 | Assay content NUC-3373 [5]: 3.6 mg/mL | Osmolarity [5]: 456 mosm/L H20 | Purity [5]: 96.1 % area | Total NUC-3373 [5]: 934.9 mg | pH [5]: 5.6 | Assay content NUC-3373 [6]: 3.7 mg/mL | Osmolarity [6]: 462 mosm/L H20 | Purity [6]: 96.1 % area | Total NUC-3373 [6]: 960.9 mg | pH [6]: 5.8 | Assay content NUC-3373 [7]: 3.6 mg/mL | Osmolarity [7]: 451 mosm/L H20 | Purity [7]: 96.2 % area | Total NUC-3373 [7]: 934.9 mg | pH [7]: 5.5 | Assay content NUC-3373 [8]: 3.8 mg/mL | Osmolarity [8]: 455 mosm/L H20 | Purity [8]: 96.1 % area | Total NUC-3373 [8]: 986.9 mg | pH [8]: 5.5 | Assay content NUC-3373 [9]: 7.2 mg/mL | Osmolarity [9]: 639 mosm/L H20 | Purity [9]: 96.1 % area | Total NUC-3373 [9]: 1946 mg | pH [9]: 5.5 | Assay content NUC-3373 [10]: 7.4 mg/mL | Osmolarity [10]: 646 mosm/L H20 | Purity [10]: 96.1 % area | Total NUC-3373 [10]: 2000 mg | pH [10]: 5.5 | Assay content NUC-3373 [11]: 7.0 mg/mL | Osmolarity [11]: 637 mosm/L H20 | Purity [11]: 96.2 % area | Total NUC-3373 [11]: 1892 mg | pH [11]: 5.5 | Assay content NUC-3373 [12]: 7.5 mg/mL | Osmolarity [12]: 633 mosm/L H20 | Purity [12]: 96.1 % area | Total NUC-3373 [12]: 2027 mg | pH [12]: 5.5 | Assay content NUC-3373 [13]: 6.9 mg/mL | Osmolarity [13]: 638 mosm/L H20 | Purity [13]: 96.1 % area
